Assay results from the NIST ThermoML archive (doi:10.1021/je800787t).

Legend:
[1] = refractive index (other wavelength) (dimensionless); conditions: 101.33 kPa, Liquid, Wavelength=632.8 nm, Standard Abbe refractometry
[2] = refractive index (other wavelength) (dimensionless); xn = mol fraction of the nth substance listed; conditions: 101.3 kPa, Liquid, Wavelength=632.8 nm, Standard Abbe refractometry

CCCCCCCCCC [decane]
[1]
Conditions | refractive index
278.87 K | 1.4169
280.1 K | 1.4163
281.3 K | 1.4158
282.48 K | 1.4153
283.62 K | 1.4148
284.82 K | 1.4142
286.06 K | 1.4137
287.23 K | 1.4132

CCCCCCCCCC [decane] + COC(=O)OC
[2], 287.95 K
Conditions | refractive index
x2 = 0.101 | 1.4095
x2 = 0.204 | 1.4062
x2 = 0.3 | 1.403
x2 = 0.401 | 1.3995
x2 = 0.501 | 1.3958
x2 = 0.605 | 1.3917
x2 = 0.686 | 1.388
x2 = 0.8 | 1.3821
x2 = 0.903 | 1.3762

COC(=O)OC [dimethyl carbonate]
[1]
Conditions | refractive index
277.34 K | 1.3749
278.7 K | 1.3743
280.06 K | 1.3737
281.54 K | 1.373
282.92 K | 1.3724
284.24 K | 1.3718
285.53 K | 1.3712
286.93 K | 1.3706
299.64 K | 1.3647
300.69 K | 1.3642
301.77 K | 1.3637
302.82 K | 1.3632
303.91 K | 1.3627
304.99 K | 1.3622
306.04 K | 1.3617
307.11 K | 1.3612
308.14 K | 1.3607

COC(=O)OC [dimethyl carbonate] + CCCCCCCCCCCCCC
Conditions | refractive index
[2], 308.14 K, x1 = 1 | 1.3632

CCCCCCCCCCCCCC [tetradecane]
[1]
Conditions | refractive index
299.64 K | 1.4248
300.67 K | 1.4244
301.68 K | 1.424
302.71 K | 1.4235
303.75 K | 1.4231
304.75 K | 1.4226
305.78 K | 1.4222
306.86 K | 1.4218
307.91 K | 1.4213

CCCCCCCCCCCCCC [tetradecane] + COC(=O)OC
[2], 308.14 K
Conditions | refractive index
x2 = 0 | 1.4235
x2 = 0.1 | 1.4179
x2 = 0.201 | 1.4145
x2 = 0.3 | 1.4107
x2 = 0.399 | 1.4067
x2 = 0.5 | 1.4019
x2 = 0.6 | 1.3966
x2 = 0.708 | 1.3898
x2 = 0.801 | 1.3826
x2 = 0.899 | 1.3729
